Test results reported in US20260137706A1, “METHODS OF TREATING INFLAMMATORY DISEASES” (INTERLINE THERAPEUTICS, INC., priority 2023, published 2026).
pIC50: −log10 of the molar value.

Experiments:
[1] = molecular target: T1, GST-RIPK2 fusion protein (human RIPK2, amino acids 1-310) (Homo sapiens, UniProt O43353); experiment: RIPK2 binding competition assay (TR-FRET, Tracer 199 displacement); conditions: 10 nM Tracer 199, 1 nM GST-RIPK2, read-out: RIPK2 IC50
T1 construct: made in house; host or cells: baculovirus infected Sf9 cells
In short: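 IC50 derived from the TR-FRET emission ratio (665/620 nm, 337 nm excitation), normalized with no-inhibitor and no-enzyme controls. Incubation 45 min at 22 °C, pH 7.5 Tris buffer, with final 10 nM tracer, 1 nM Sf9-expressed GST-RIPK2 fragment (aa 1-310) and 0.5 nM Tb-labelled anti-GST.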

[2] = molecular target: T2, binding of His-XIAP(BIR2)-avi fusion protein to GST-RIPK2 fusion protein (RIPK2/XIAP) (Homo sapiens, UniProt O43353); experiment: RIPK2-XIAP binding competition PPI assay (TR-FRET); conditions: RIPK2/XIAP binding competition PPI assay; for Emax: Amax, read-out: PPI Amax bin; for pIC50: read-out: PPI IC50 bin
T2 construct: made in house; host or cells: baculovirus infected Sf9 cells
In short: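 Compounds (in DMSO, 100-fold stock) incubated 120 min at 23 °C with 1 nM GST-RIPK2 (aa 1-310) and 25 nM His-XIAP(BIR2 aa 152-231)-avi, plus anti-His-XL665 and anti-GST-Tb, in pH 7.5 Tris buffer. Read-out: 665/520 nm emission ratio. Normalized to no-inhibitor (0%) and 50 nM GSK583 (−100%); Amax binned A–D.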

[3] = tested on: NF-κB pathway (SEAP) in THP1-Dual cells; experiment: THP-1 Dual cell SEAP assay (L18-MDP stimulated); assay type: cell-based; conditions: Homo sapiens, THP1-Dual, read-out: NF-κB THP1 IC50 bin
In short: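 IC50 values derive from non-linear regression of % inhibition, calculated against DMSO/L18-MDP-treated wells after media-only subtraction. NF-κB SEAP activity was read at OD 620-655 nm (QUANTI-Blue, 2 h, 37 °C) from supernatants of THP1-Dual cells. Cells had been compound-treated 30 min before overnight (20-24 h) stimulation with 10 ng/mL final L18-MDP.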

T2 sequence (O43353 1-310 limits assumed): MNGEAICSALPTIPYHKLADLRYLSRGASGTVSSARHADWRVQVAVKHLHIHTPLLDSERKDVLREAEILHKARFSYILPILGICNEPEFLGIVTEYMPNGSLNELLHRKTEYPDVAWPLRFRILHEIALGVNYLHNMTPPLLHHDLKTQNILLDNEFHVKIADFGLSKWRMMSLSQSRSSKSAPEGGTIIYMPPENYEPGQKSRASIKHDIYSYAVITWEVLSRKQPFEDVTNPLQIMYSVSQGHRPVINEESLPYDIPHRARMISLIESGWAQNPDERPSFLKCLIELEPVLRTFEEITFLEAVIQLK
T1 sequence (O43353 1-310): as the sequence (O43353 1-310 limits assumed) above

SMILES: CC(C)(C)S(=O)(=O)c1cn2c(-c3cc(F)c(N)nc3F)cnc2cc1-c1cc[nH]n1 [Example 37, 5-(6-(tert-butylsulfonyl)-7-(1H-pyrazol-3-yl)imidazo[1,2-a]pyridin-3-yl)-3,6-difluoropyridin-2-amine]
- pIC50 [1]: < 7.70
- Emax [2]: > 80%
- pIC50 [2]: < 7.70
- pIC50 [3]: < 6.00

SMILES: CC(C)(C)S(=O)(=O)c1cn2c(-c3cc(F)c(N)nc3F)cnc2cc1OCC1(CO)CC1 [Example 56, (1-(((3-(6-amino-2,5-difluoropyridin-3-yl)-6-(tert-butylsulfonyl)imidazo[1,2-a]pyridin-7-yl)oxy)methyl)cyclopropyl)methanol]
- pIC50 [1]: 7.70 to 8.60
- Emax [2]: > 80%
- pIC50 [2]: 7.70 to 8.60
- pIC50 [3]: 6.60 to 7.30

SMILES: COc1cc2ncc(-c3cc(F)c(OC)c(NS(=O)(=O)c4cnn(CCO)c4)c3)n2cc1C(F)(F)F [Example 304, N-(3-fluoro-2-methoxy-5-(7-methoxy-6-(trifluoromethyl)imidazo[1,2-a]pyridin-3-yl)phenyl)-1-(2-hydroxyethyl)-1H-pyrazole-4-sulfonamide]
- pIC50 [1]: 7.70 to 8.60
- Emax [2]: > 80%
- pIC50 [2]: 7.70 to 8.60
- pIC50 [3]: < 6.00

SMILES: COc1cc2ncc(-c3cccc(NS(=O)(=O)C4CC4)c3)n2cc1S(=O)(=O)C(C)(C)C [Example 146, N-(3-(6-(tert-butylsulfonyl)-7-methoxyimidazo[1,2-a]pyridin-3-yl)phenyl)cyclopropanesulfonamide]
- pIC50 [1]: 7.70 to 8.60
- Emax [2]: > 80%
- pIC50 [2]: 7.70 to 8.60
- pIC50 [3]: < 6.00

SMILES: CC(C)(C)S(=O)(=O)c1cn2c(-c3cnc4[nH]ccc4c3)cnc2cc1OCCO [Example 53, 2-((6-(tert-butylsulfonyl)-3-(1H-pyrrolo[2,3-b]pyridin-5-yl)imidazo[1,2-a]pyridin-7-yl)oxy)ethan-1-ol]
- pIC50 [1]: > 9.00
- Emax [2]: > 80%
- pIC50 [2]: 8.60 to 9.00
- pIC50 [3]: 6.60 to 7.30

SMILES: COc1cc2ncc(-c3cc(F)c(N)nc3F)n2cc1C1(O)CCOCC1 [Example 75, 4-(3-(6-amino-2,5-difluoropyridin-3-yl)-7-methoxyimidazo[1,2-a]pyridin-6-yl)tetrahydro-2H-pyran-4-ol]
- pIC50 [1]: < 7.70
- Emax [2]: > 80%
- pIC50 [2]: < 7.70
- pIC50 [3]: < 6.00

SMILES: COc1cc2ncc(-c3ccc4nc(N)ccc4c3)n2cc1S(=O)(=O)C(C)(C)C [Example 89, 6-(6-(tert-butylsulfonyl)-7-methoxyimidazo[1,2-a]pyridin-3-yl)quinolin-2-amine]
- pIC50 [1]: 7.70 to 8.60
- Emax [2]: < 30%
- pIC50 [2]: < 7.70
- pIC50 [3]: 6.00 to 6.60

SMILES: COc1cc(-c2cnc3cc(OCCO)c(S(=O)(=O)C(C)(C)C)cn23)cc(NS(=O)(=O)c2cnn(C)c2)c1OC [Example 245, N-(5-(6-(tert-butylsulfonyl)-7-(2-hydroxyethoxy)imidazo [1,2-a]pyridin-3-yl)-2,3-dimethoxyphenyl)-1-methyl-1H-pyrazole-4-sulfonamide]
- pIC50 [1]: 8.60 to 9.00
- Emax [2]: > 80%
- pIC50 [2]: > 9.00
- pIC50 [3]: > 7.30

SMILES: COc1cc2ncc(-c3cnn(-c4ccccc4)c3F)n2cc1S(=O)(=O)C(C)(C)C [Example 88, 6-(tert-butylsulfonyl)-3-(5-fluoro-1-phenyl-1H-pyrazol-4-yl)-7-methoxyimidazo[1,2-a]pyridine]
- pIC50 [1]: < 7.70
- Emax [2]: < 30%
- pIC50 [2]: < 7.70
- pIC50 [3]: < 6.00

SMILES: COc1cc2ncc(-c3cc(F)c(OC)c(NC(=O)Cc4ccn(C)n4)c3)n2cc1S(=O)(=O)C(C)(C)C [Example 298, N-(5-(6-(tert-butylsulfonyl)-7-methoxyimidazo[1,2-a]pyridin-3-yl)-3-fluoro-2-methoxyphenyl)-2-(1-methyl-1H-pyrazol-3-yl)acetamide]
- pIC50 [1]: 7.70 to 8.60
- Emax [2]: 55 to 80%
- pIC50 [2]: 7.70 to 8.60
- pIC50 [3]: 6.00 to 6.60

SMILES: CCCS(=O)(=O)Nc1cc(-c2cnc3cc(OC)c(S(=O)(=O)C(C)(C)C)cn23)cc(-n2cccn2)c1 [Example 81, N-(3-(6-(tert-butylsulfonyl)-7-methoxyimidazo[1,2-a]pyridin-3-yl)-5-(1H-pyrazol-1-yl)phenyl)propane-1-sulfonamide]
- pIC50 [1]: 8.60 to 9.00
- Emax [2]: < 30%
- pIC50 [2]: < 7.70
- pIC50 [3]: 6.00 to 6.60

SMILES: CC(C)(O)COc1cc2ncc(-c3cc(Cl)c(N)nc3F)n2cc1S(=O)(=O)C(C)(C)C [Example 240, 1-((3-(6-amino-5-chloro-2-fluoropyridin-3-yl)-6-(tert-butylsulfonyl)imidazo [1,2-a]pyridin-7-yl)oxy)-2-methylpropan-2-ol]
- pIC50 [1]: 8.60 to 9.00
- Emax [2]: > 80%
- pIC50 [2]: 8.60 to 9.00
- pIC50 [3]: 6.60 to 7.30
